Results taken from patent EP3807270B1, “NOVEL HETEROARYL HETEROCYCLYL COMPOUNDS FOR THE TREATMENT OF AUTOIMMUNE DISEASE” (F. Hoffmann-La Roche AG, priority 2018, dated 2019).

Key:
CYP2D6 = target: T1, CYP2D6 (Homo sapiens, UniProt P10635); experiment: CYP inhibition assay in human liver microsome; type: in vitro ADME; conditions: human liver microsomes, probe dextromethorphan, 10µM test compound, dextromethorphan substrate, <0: not or weak inhibitor, read-out: CYP 2D6 inhibition %@10µM
T1 construct: tissue BD-Gentest 452117; host or cells: human liver microsomes
In short: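 HLM mixed with CYP2D6 substrate, preincubated 10 min at 37 °C, started with NADPH regenerating system and run 10 min at 37 °C before acetonitrile quench. Metabolite measured by RapidFire MS/MS against D3-dextrorphan internal standard. % inhibition scaled between DMSO and concentrated-inhibitor controls.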

hTLR9 = target: T2, hTLR9 (Homo sapiens, UniProt Q9NR96); experiment: HEK293-Blue-hTLR-9 cells assay (SEAP reporter, ODN2006 stimulation); type: cell-based; set-up: host or cells: HEK293 (HEK-Blue); conditions: HEK293-Blue-hTLR9 cells, ODN2006, 20 hrs; read-out: HEK/hTLR9 IC50
T2 sequence (Q9NR96 26-1032): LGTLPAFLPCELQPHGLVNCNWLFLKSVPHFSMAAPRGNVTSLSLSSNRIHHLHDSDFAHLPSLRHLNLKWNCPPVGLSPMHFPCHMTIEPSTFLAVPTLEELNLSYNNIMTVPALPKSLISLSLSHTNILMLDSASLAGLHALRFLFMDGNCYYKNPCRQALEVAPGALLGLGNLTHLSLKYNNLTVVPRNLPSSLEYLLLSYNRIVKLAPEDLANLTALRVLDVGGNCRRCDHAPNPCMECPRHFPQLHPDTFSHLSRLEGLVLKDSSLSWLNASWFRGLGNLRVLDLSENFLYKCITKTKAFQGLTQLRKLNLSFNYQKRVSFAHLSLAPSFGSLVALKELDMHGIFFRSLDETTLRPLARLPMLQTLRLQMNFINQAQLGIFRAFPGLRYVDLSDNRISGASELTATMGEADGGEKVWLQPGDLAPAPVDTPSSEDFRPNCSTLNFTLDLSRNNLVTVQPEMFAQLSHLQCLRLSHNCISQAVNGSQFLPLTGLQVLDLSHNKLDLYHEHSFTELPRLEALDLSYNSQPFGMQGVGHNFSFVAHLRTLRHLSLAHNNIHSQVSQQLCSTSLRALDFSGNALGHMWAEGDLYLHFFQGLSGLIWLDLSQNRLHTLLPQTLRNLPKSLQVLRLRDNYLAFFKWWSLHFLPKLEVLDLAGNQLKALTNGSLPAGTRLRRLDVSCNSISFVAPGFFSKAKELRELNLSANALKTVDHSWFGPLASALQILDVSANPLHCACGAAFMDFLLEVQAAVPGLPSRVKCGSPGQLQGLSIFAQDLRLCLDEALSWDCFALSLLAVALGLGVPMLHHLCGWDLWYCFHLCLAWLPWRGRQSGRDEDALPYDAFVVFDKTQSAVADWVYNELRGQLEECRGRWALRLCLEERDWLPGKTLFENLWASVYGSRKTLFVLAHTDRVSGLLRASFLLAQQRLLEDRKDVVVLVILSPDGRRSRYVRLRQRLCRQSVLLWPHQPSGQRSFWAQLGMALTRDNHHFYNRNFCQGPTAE
In short: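 HEK293-Blue-hTLR9 cells (250,000-450,000 cells/mL) in DMEM with 10% FBS were treated with serially diluted compound (1% DMSO final) plus ODN2006 for 20 hrs at 37 °C. Supernatant SEAP activity was measured with QUANTI-Blue substrate for 2 hrs at 37 °C, reading absorbance at 620-655 nm.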

T1 sequence (P10635 whole entry): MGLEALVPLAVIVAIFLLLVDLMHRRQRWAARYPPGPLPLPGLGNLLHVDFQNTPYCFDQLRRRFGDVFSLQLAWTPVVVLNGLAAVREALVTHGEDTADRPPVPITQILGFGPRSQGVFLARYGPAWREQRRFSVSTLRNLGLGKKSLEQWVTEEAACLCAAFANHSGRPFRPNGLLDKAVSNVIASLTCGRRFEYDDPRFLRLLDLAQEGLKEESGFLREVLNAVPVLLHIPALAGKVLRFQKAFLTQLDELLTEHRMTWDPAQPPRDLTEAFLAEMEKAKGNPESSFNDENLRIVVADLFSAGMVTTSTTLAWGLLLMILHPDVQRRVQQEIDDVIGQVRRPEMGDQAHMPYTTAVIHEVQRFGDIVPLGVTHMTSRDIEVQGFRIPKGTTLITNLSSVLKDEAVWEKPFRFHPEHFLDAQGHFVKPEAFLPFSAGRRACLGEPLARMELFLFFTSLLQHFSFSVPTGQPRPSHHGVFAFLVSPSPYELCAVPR

| inhibition at 10 min, 10 µM (CYP2D6) [%] | IC50 (hTLR9) [µM] | SMILES |
| --- | --- | --- |
| 6 | 0.045 | C[C@@H]1CN(c2ccc(C#N)c3ncccc23)C[C@H](CN2CCN(c3ccc4c(c3)C(O)CNC4)CC2)O1 (stereo partly drawn) [Example 22, 5-[(2S,6R)-2-[[4-(4-hydroxy-1,2,3,4-tetrahydroisoquinolin-6-yl)piperazin-1-yl]methyl]-6-methyl-morpholin-4-yl]quinoline-8-carbonitrile] |
| -12 | 0.056 | C[C@@H]1CN(c2ccc(C#N)c3ncccc23)C[C@H](CN2CC3(C2)CN(c2cc4c(cn2)CCNC4)CCO3)O1 [Example 48, 5-[(2R,6S)-2-methyl-6-[[8-(5,6,7,8-tetrahydro-2,6-naphthyridin-3-yl)-5-oxa-2,8-diazaspiro[3.5]nonan-2-yl]methyl]morpholin-4-yl]quinoline-8-carbonitrile] |
